Active and inactive are the calls of the source. The rule behind the calls is not given here.
Columns and labels:
HUVEC [1] = test: Cytotoxicity against HUVEC assessed as reduction in cell viability after 72 hrs by MTS assay; assay type: cell-based, Homo sapiens; conditions: Homo sapiens, HUVEC
GSC-3 [2] = test: Induction of apoptosis in human GSC-3 cells assessed as increase in cleaved caspase 3 at 15 uM after 48 hrs by immunofluorescence assay; assay type: functional, cell-based
[3] = Induction of apoptosis in human GSC-3 cells assessed as late apoptotic cells at 20 uM incubated for 36 hrs by Annexin V-FITC/PI staining based flow cytometric analysis (reference value: 7.79%); assay type: functional
U-87 MG [4] = test: Inhibition of colony formation in human U-87 MG cells assessed as tumor spheres damage at 15 uM by crystal violet staining based assay; assay type: functional, cell-based; conditions: U-87MG ATCC
[5] = Induction of apoptosis in human GSC-3 cells assessed as viable cells at 10 uM incubated for 36 hrs by Annexin V-FITC/PI staining based flow cytometric analysis (reference value: 83.8%); assay type: functional; conditions: read-out: Activity
U-87 MG [6] = test: Cytotoxicity against human U-87 MG cells assessed as inhibition of cell growth at 20 uM after 5 days; assay type: cell-based; conditions: u-87mg atcc, 120 h, time 5 day
GSC-3 [7] = test: Induction of apoptosis in human GSC-3 cells assessed as ROS accumulation at 4 to 12 uM after 3 hrs in presence of NAC by DCFH-DA assay; assay type: functional, cell-based; conditions: dose 4-12 µM
GSC-18 [8] = test: Induction of apoptosis in human GSC-18 cells assessed as increase in cleaved caspase 3 at 15 uM after 48 hrs by immunofluorescence assay; assay type: functional, cell-based
GSC-3 [9] = test: Inhibition of colony formation in human GSC-3 cells assessed as tumor spheres damage at 15 uM after 2 weeks by crystal violet staining based assay; assay type: functional, cell-based
GSC-3 [10] = test: Antiproliferative activity against human GSC-3 cells assessed as inhibition of cell growth at 15 uM after 48 hrs by BrdU incorporation assay; assay type: functional, cell-based
GSC-3 [11] = test: Cytotoxicity against human GSC3 cells assessed as inhibition of cell growth at 20 uM after 5 days; assay type: functional, cell-based; conditions: time 5.0 day
[12] = Induction of apoptosis in human GSC-3 cells assessed as early apoptotic cells at 10 uM incubated for 36 hrs by Annexin V-FITC/PI staining based flow cytometric analysis (reference value: 6.99%); assay type: functional
GSC-18 [13] = test: Induction of apoptosis in human GSC-18 cells assessed as ROS accumulation at 4 to 12 uM after 3 hrs in presence of NAC by DCFH-DA assay; assay type: functional, cell-based; conditions: dose 4-12 µM
[14] = Cytotoxicity against human GSC3 cells assessed as reduction in cell viability after 72 hrs by MTS assay; assay type: functional, cell-based; conditions: GSC-3, 72 h
[15] = Induction of apoptosis in human GSC-3 cells assessed as necrotic cells at 10 uM incubated for 36 hrs by Annexin V-FITC/PI staining based flow cytometric analysis (reference value: 1.42%); assay type: functional
GSC-3 [16] = test: Inhibition of colony formation in human GSC-3 cells assessed as decrease in number of tumor spheres at 15 uM after 2 weeks by crystal violet staining based assay; assay type: functional, cell-based
GSC-18 [17] = test: Induction of apoptosis in human GSC-18 cells assessed as cell shrank at 20 uM; assay type: functional, cell-based
HEK-293T [18] = test: Cytotoxicity against human 293T cells assessed as inhibition of cell growth at 20 uM after 5 days; assay type: cell-based; conditions: 120 h, time 5 day
GSC-18 [19] = test: Inhibition of colony formation in human GSC-18 cells assessed as tumor spheres damage at 15 uM after 2 weeks by crystal violet staining based assay; assay type: functional, cell-based
T98G [20] = test: Inhibition of colony formation in human […] cells assessed as decrease in number of tumor spheres at 15 uM by crystal violet staining based assay; assay type: functional, cell-based
GSC-18 [21] = test: Inhibition of colony formation in human GSC-18 cells assessed as decrease in number of tumor spheres at 15 uM after 2 weeks by crystal violet staining based assay; assay type: functional, cell-based
GSC-18 [22] = test: Cytotoxicity against human GSC18 cells assessed as inhibition of cell growth at 20 uM after 5 days; assay type: functional, cell-based; conditions: time 5.0 day
HUVEC [23] = test: Cytotoxicity against HUVEC assessed as inhibition of cell growth at 20 uM after 5 days; assay type: cell-based; conditions: human, 120 h, time 5 day
U-87 MG [24] = test: Cytotoxicity against human U-87 MG cells assessed as reduction in cell viability after 72 hrs by MTS assay; assay type: cell-based, U-87MG ATCC; conditions: Homo sapiens, U-87 MG
T98G [25] = test: Cytotoxicity against human T98G assessed as reduction in cell viability after 72 hrs by MTS assay; assay type: cell-based; conditions: Homo sapiens, T98G
GSC-18 [26] = test: Induction of apoptosis in human GSC-18 cells assessed as appearance of round and detached cells at 20 uM; assay type: functional, cell-based
[27] = Induction of apoptosis in human GSC-3 cells assessed as necrotic cells at 7.5 uM incubated for 36 hrs by Annexin V-FITC/PI staining based flow cytometric analysis (reference value: 1.42%); assay type: functional
GSC-3 [28] = test: Induction of apoptosis in human GSC-3 cells assessed as cell shrank at 20 uM; assay type: functional, cell-based
HEK-293T [29] = test: Induction of apoptosis in human 293T cells assessed as accumulation of ROS by measuring increase in NCF1 expression at 15 uM after 48 hrs by transcriptome analysis; assay type: functional, cell-based
GSC-3 [30] = test: Induction of apoptosis in human GSC-3 cells assessed as accumulation of ROS by measuring increase in NCF1 expression at 15 uM after 48 hrs by transcriptome analysis; assay type: functional, cell-based
[31] = Cytotoxicity against human GSC18 cells assessed as reduction in cell viability after 72 hrs by MTS assay; assay type: functional, cell-based, GSC-18; conditions: GSC18, 72 h
[32] = Induction of apoptosis in human GSC-3 cells assessed as early apoptotic cells at 20 uM incubated for 36 hrs by Annexin V-FITC/PI staining based flow cytometric analysis (reference value: 6.99%); assay type: functional
GSC-3 [33] = test: Induction of apoptosis in human GSC-3 cells assessed as reduction in Bcl-2 protein expression at 7.5 to 20 uM after 48 hrs by Western blotting analysis; assay type: functional, cell-based; conditions: dose 7.5-20 µM
[34] = Induction of apoptosis in human GSC-3 cells assessed as early apoptotic cells at 7.5 uM incubated for 36 hrs by Annexin V-FITC/PI staining based flow cytometric analysis (reference value: 6.99%); assay type: functional
GSC-18 [35] = test: Antiproliferative activity against human GSC-18 cells assessed as inhibition of cell growth at 15 uM after 48 hrs by BrdU incorporation assay; assay type: functional, cell-based
GSC-3 [36] = test: Induction of apoptosis in human GSC-3 cells assessed as accumulation of ROS by measuring increase in NOX1 expression at 15 uM after 48 hrs by transcriptome analysis; assay type: functional, cell-based
T98G [37] = test: Inhibition of colony formation in human […] cells assessed as tumor spheres damage at 15 uM by crystal violet staining based assay; assay type: functional, cell-based
[38] = Induction of apoptosis in human GSC-3 cells assessed as viable cells at 7.5 uM incubated for 36 hrs by Annexin V-FITC/PI staining based flow cytometric analysis (reference value: 83.8%); assay type: functional; conditions: read-out: Activity
[39] = Induction of apoptosis in human GSC-3 cells assessed as viable cells at 20 uM incubated for 36 hrs by Annexin V-FITC/PI staining based flow cytometric analysis (reference value: 83.8%); assay type: functional; conditions: read-out: Activity
HEK-293T [40] = test: Induction of apoptosis in human 293T cells assessed as accumulation of ROS by measuring increase in NOX1 expression at 15 uM after 48 hrs by transcriptome analysis; assay type: functional, cell-based
GSC-3 [41] = test: Induction of apoptosis in human GSC-3 cells assessed as appearance of round and detached cells at 20 uM; assay type: functional, cell-based
[42] = Induction of apoptosis in human GSC-3 cells assessed as late apoptotic cells at 10 uM incubated for 36 hrs by Annexin V-FITC/PI staining based flow cytometric analysis (reference value: 7.79%); assay type: functional
T98G [43] = test: Cytotoxicity against human T98G cells assessed as inhibition of cell growth at 20 uM after 5 days; assay type: cell-based; conditions: 120 h, time 5 day
HEK-293T [44] = test: Cytotoxicity against human 293T cells assessed as reduction in cell viability after 72 hrs by MTS assay; assay type: cell-based; conditions: Homo sapiens, HEK-293T
[45] = Induction of apoptosis in human GSC-3 cells assessed as necrotic cells at 20 uM incubated for 36 hrs by Annexin V-FITC/PI staining based flow cytometric analysis (reference value: 1.42%); assay type: functional
[46] = Induction of apoptosis in human GSC-3 cells assessed as late apoptotic cells at 7.5 uM incubated for 36 hrs by Annexin V-FITC/PI staining based flow cytometric analysis (reference value: 7.79%); assay type: functional
U-87 MG [47] = test: Inhibition of colony formation in human U-87 MG cells assessed as decrease in number of tumor spheres at 15 uM by crystal violet staining based assay; assay type: functional, cell-based; conditions: U-87MG ATCC

## CC1=C(CC[C@H](C)CO[C@@H]2O[C@H](CO)[C@@H](O)[C@H](O)[C@H]2O)O[C@H]2C[C@H]3[C@@H]4CC[C@@H]5C[C@@H](O[C@@H]6O[C@H](CO)[C@@H](O[C@@H]7O[C@@H](C)[C@H](O)[C@@H](O)[C@H]7O)[C@H](O)[C@H]6O[C@@H]6O[C@@H](C)[C@H](O)[C@@H](O)[C@H]6O)CC[C@]5(C)[C@H]4CC[C@]3(C)[C@@H]12
HUVEC [1]
  IC50: > 100 µM
GSC-3 [2]
  Activity: Active
[3]
  Activity: 5.03%
U-87 MG [4]
  Activity: Active
[5]
  viability at 10 µM: 60.4%
U-87 MG [6]
  Activity: Non-Toxic
GSC-3 [7]
  Activity: inactive
GSC-18 [8]
  Activity: Active
GSC-3 [9]
  Activity: Active
GSC-3 [10]
  Activity: Active
GSC-3 [11]
  Activity: Active
[12]
  Activity: 34.3%
GSC-18 [13]
  Activity: inactive
[14]
  IC50: 7 µM
[15]
  Activity: 0.69%
GSC-3 [16]
  inhibition: Active
GSC-18 [17]
  Activity: Active
HEK-293T [18]
  Activity: Non-Toxic
GSC-18 [19]
  Activity: Active
T98G [20]
  inhibition: Active
GSC-18 [21]
  inhibition: Active
GSC-18 [22]
  Activity: Active
HUVEC [23]
  Activity: Non-Toxic
U-87 MG [24]
  IC50: > 100 µM
T98G [25]
  IC50: > 100 µM
GSC-18 [26]
  Activity: Active
[27]
  Activity: 1.01%
GSC-3 [28]
  Activity: Active
HEK-293T [29]
  Activity: inactive
GSC-3 [30]
  Activity: Active
[31]
  IC50: 6.6 µM
[32]
  Activity: 53.3%
GSC-3 [33]
  Activity: Active
[34]
  Activity: 19.4%
GSC-18 [35]
  Activity: Active
GSC-3 [36]
  Activity: Active
T98G [37]
  inhibition: Active
[38]
  viability at 7.5 µM: 74.1%
[39]
  viability at 20 µM: 41.1%
HEK-293T [40]
  Activity: inactive
GSC-3 [41]
  Activity: Active
[42]
  Activity: 4.67%
T98G [43]
  Activity: Non-Toxic
HEK-293T [44]
  IC50: > 100 µM
[45]
  Activity: 0.56%
[46]
  Activity: 5.46%
U-87 MG [47]
  Activity: Active

Source: ChEMBL document CHEMBL4732125, “Structures/cytotoxicity/selectivity relationship of natural steroidal saponins against GSCs and primary mechanism of tribulosaponin A” (Eur J Med Chem, 2021)
